In test [1] the target is T1, Melanocortin receptor 4 (Homo sapiens, UniProt P32245). Kind of test: Displacement of [125I]NDP-MSH from HEK293 cells expressing human melanocortin-4 receptor. Format: cell-based. (In a radioligand displacement assay an active substance lowers the binding of a labelled ligand.)
Test [2] deals with T1, Melanocortin receptor 4. The test is described as follows: Effective concentration against cAMP release in CHO cells expressing human melanocortin-4 receptor. Format: functional, cell-based.
Another test addresses Melanocortin receptor 5 (Homo sapiens, UniProt P33032). Kind of test: Displacement of [125I]NDP-MSH from HEK293 cells expressing human melanocortin-5 receptor. Format: cell-based.
The next test concerns the target Melanocortin receptor 3 (Homo sapiens, UniProt P41968). The test is described as follows: Displacement of [125I]NDP-MSH from HEK293 cells expressing human melanocortin-3 receptor. Format: cell-based.
Test [3] concerns the target T2, Melanocyte-stimulating hormone receptor (Homo sapiens, UniProt Q01726). Kind of test: Displacement of [125I]NDP-MSH from HEK293 cells expressing human melanocortin-1 receptor. Format: cell-based.
Target sequence in this assay (Q01726 whole entry): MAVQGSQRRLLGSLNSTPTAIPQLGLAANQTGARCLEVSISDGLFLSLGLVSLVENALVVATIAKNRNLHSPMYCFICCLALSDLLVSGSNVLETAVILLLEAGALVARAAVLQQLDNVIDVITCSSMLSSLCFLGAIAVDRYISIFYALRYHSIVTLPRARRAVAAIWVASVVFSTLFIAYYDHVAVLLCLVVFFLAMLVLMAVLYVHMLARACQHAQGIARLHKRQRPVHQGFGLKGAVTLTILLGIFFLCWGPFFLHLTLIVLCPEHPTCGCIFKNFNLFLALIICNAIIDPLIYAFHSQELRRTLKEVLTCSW
Test [4] concerns the target T1, Melanocortin receptor 4. Kind of test: Effective concentration for cAMP release in HEK293 cells expressing human melanocortin-4 receptor. It counts as functional, cell-based.
Test [5] deals with T1, Melanocortin receptor 4. Kind of test: Percent intrinsic activity of alpha-MSH-stimulated cAMP level in HEK293 cells expressing human melanocortin-4 receptor. It counts as functional, cell-based. Background: Cyclic AMP is a second messenger, typically raised through Gs and lowered through Gi signalling.
Test [6] addresses T2, Melanocyte-stimulating hormone receptor. The test is described as follows: Displacement of [125I]NDP-MSH from human melanocortin-1 receptor expressed in HEK 293 cells at 10 uM. It counts as cell-based. To be noted: HEK293.
Target sequence in this assay (Q01726 whole entry, looked up): as the sequence (Q01726 whole entry) above

T1 sequence (P32245 whole entry): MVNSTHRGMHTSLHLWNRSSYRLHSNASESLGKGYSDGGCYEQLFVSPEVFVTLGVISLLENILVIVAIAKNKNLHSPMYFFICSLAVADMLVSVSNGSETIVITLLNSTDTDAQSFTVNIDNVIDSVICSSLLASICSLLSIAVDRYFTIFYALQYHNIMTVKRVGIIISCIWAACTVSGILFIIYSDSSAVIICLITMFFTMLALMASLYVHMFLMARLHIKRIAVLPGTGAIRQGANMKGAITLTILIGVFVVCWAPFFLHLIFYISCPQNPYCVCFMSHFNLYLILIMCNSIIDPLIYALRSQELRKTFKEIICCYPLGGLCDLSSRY
Chain of Melanocortin receptor 3 (P41968 whole entry): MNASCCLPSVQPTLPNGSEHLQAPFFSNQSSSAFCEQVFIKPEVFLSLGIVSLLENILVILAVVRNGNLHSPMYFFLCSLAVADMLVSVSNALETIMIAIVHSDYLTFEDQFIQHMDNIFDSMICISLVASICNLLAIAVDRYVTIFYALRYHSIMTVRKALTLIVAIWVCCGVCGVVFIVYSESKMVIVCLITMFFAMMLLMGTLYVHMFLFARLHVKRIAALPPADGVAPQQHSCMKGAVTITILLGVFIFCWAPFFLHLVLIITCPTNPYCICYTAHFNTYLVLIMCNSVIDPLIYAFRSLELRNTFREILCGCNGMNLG
Chain of Melanocortin receptor 5 (P33032 whole entry): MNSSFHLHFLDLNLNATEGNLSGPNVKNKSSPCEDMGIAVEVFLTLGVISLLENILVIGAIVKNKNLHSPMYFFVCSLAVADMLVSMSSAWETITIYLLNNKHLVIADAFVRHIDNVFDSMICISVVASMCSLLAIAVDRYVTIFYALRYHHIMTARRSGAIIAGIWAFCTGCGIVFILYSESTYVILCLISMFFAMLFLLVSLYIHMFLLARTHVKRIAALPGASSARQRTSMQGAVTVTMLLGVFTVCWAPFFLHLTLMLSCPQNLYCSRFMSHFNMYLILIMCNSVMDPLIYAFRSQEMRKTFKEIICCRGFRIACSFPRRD

Take `COCCN(C)Cc1ccccc1N1CCN(C(=O)[C@@H](Cc2ccc(Cl)cc2)NC(=O)[C@H]2Cc3ccccc3CN2)CC1`: at Melanocortin receptor 4 [1], the Ki (usually the equilibrium dissociation constant of an inhibitor or competing ligand from its target) came to 49 nM. Further, a half-maximal response on Melanocortin receptor 4 [2] (EC50) required 51 nM.

As for `NCc1ccccc1N1CCN(C(=O)[C@@H](Cc2ccc(Cl)cc2)NC(=O)[C@H]2Cc3ccccc3CN2)CC1`, the Ki was 2300 nM at Melanocortin receptor 5 and 380 nM at Melanocortin receptor 4 [1]. Further, the response on Melanocortin receptor 4 [2] was half-maximal at 274 nM (EC50).

`CN(Cc1cccnc1)Cc1ccccc1N1CCN(C(=O)[C@@H](Cc2ccc(Cl)cc2)NC(=O)[C@H]2Cc3ccccc3CN2)CC1` gave a Ki at Melanocortin receptor 4 [1] of 77 nM. For the same compound, a half-maximal effect at Melanocortin receptor 4 [2] (EC50) was put at 94 nM.

The compound `CC(NC1CC1)c1ccccc1N1CCN(C(=O)[C@@H](Cc2ccc(Cl)cc2)NC(=O)[C@H]2Cc3ccccc3CN2)CC1` (stereo partly drawn) registered a Ki on Melanocortin receptor 4 [1] of 23 nM. Also, it took 174 nM to reach a half-maximal effect at Melanocortin receptor 4 [2] (EC50).

Regarding `NCCNCc1ccccc1N1CCN(C(=O)[C@@H](Cc2ccc(Cl)cc2)NC(=O)[C@H]2Cc3ccccc3CN2)CC1`, the Ki at Melanocortin receptor 4 [1] turned out to be 127 nM. Moreover, the response at Melanocortin receptor 4 [2] was half-maximal at 91 nM (EC50).

Turning to `O=C(N[C@H](Cc1ccc(Cl)cc1)C(=O)N1CCN(c2ccccc2CNCCc2ccccc2F)CC1)[C@H]1Cc2ccccc2CN1`, the figures for the inhibitory constant (Ki) at Melanocortin receptor 5, on Melanocortin receptor 4 [1] and on Melanocortin receptor 3 were 260 nM, 27 nM and 2300 nM, respectively. Moreover, on Melanocortin receptor 4 [2], the response was half-maximal at 910 nM (EC50).

`CC(NC1CCCNC1)c1ccccc1N1CCN(C(=O)[C@@H](Cc2ccc(Cl)cc2)NC(=O)[C@H]2Cc3ccccc3CN2)CC1` (stereo partly drawn): the Ki in test [3] was 1500 nM; on Melanocortin receptor 5, 270 nM; at Melanocortin receptor 4 [1], 6.4 nM; at Melanocortin receptor 3, 2000 nM. The concentration for a half-maximal effect (EC50) (usually the midpoint of the concentration-response curve) on Melanocortin receptor 4 [4] came to 4.7 nM; on Melanocortin receptor 4 [2], 3.8 nM. The compound further yielded an IA at Melanocortin receptor 4 [5] of 100%.

On Melanocortin receptor 4 [1], `CC(N[C@H]1CCCCC1N)c1ccccc1N1CCN(C(=O)[C@@H](Cc2ccc(Cl)cc2)NC(=O)[C@H]2Cc3ccccc3CN2)CC1` (stereo partly drawn) had a Ki of 13 nM. Further, at Melanocortin receptor 4 [2], the EC50 worked out at 15 nM.

`O=C(N[C@H](Cc1ccc(Cl)cc1)C(=O)N1CCN(c2ccccc2CN2CCC(N3CCCC3)CC2)CC1)[C@H]1Cc2ccccc2CN1` registered a Ki on Melanocortin receptor 4 [1] of 24 nM. The compound also displayed an EC50 at Melanocortin receptor 4 [2] of 146 nM.

`O=C(N[C@H](Cc1ccc(Cl)cc1)C(=O)N1CCN(c2ccccc2Cn2cncn2)CC1)[C@H]1Cc2ccccc2CN1`: the inhibition (in general, the drop in the measured response relative to a control, in per cent) in test [6] amounted to 36%. The Ki at Melanocortin receptor 5 worked out at 1200 nM; at Melanocortin receptor 4 [1], 270 nM. It took 110 nM to reach a half-maximal effect on Melanocortin receptor 4 [2] (EC50).

`CN(CCc1ccccn1)Cc1ccccc1N1CCN(C(=O)[C@@H](Cc2ccc(Cl)cc2)NC(=O)[C@H]2Cc3ccccc3CN2)CC1` displayed a Ki at Melanocortin receptor 4 [1] of 35 nM. At Melanocortin receptor 4 [2], this compound displayed an EC50 of 190 nM.

At Melanocortin receptor 4 [1], `O=C(N[C@H](Cc1ccc(Cl)cc1)C(=O)N1CCN(c2ccccc2CNCCc2ccc(F)cc2)CC1)[C@H]1Cc2ccccc2CN1` came in with a Ki of 81 nM. At Melanocortin receptor 4 [2], this compound registered an EC50 of 487 nM.

For the compound `O=C(N[C@H](Cc1ccc(Cl)cc1)C(=O)N1CCN(c2ccccc2CN2CCN(c3ccccc3)CC2)CC1)[C@H]1Cc2ccccc2CN1`, on Melanocortin receptor 4 [1], the Ki is 145 nM. Besides, on Melanocortin receptor 4 [2], the midpoint of the response, the EC50, lay at 300 nM.

For the compound `O=C(N[C@H](Cc1ccc(Cl)cc1)C(=O)N1CCN(c2ccccc2CNCCc2cccs2)CC1)[C@H]1Cc2ccccc2CN1`, the inhibitory constant (Ki) was 6000 nM in test [3], 240 nM on Melanocortin receptor 5 and 1800 nM at Melanocortin receptor 3.

Compound `O=C(O)CCNCc1ccccc1N1CCN(C(=O)[C@@H](Cc2ccc(Cl)cc2)NC(=O)[C@H]2Cc3ccccc3CN2)CC1` displayed an inhibition constant (Ki) on Melanocortin receptor 4 [1] of 490 nM. Besides, the EC50 on Melanocortin receptor 4 [2] came to 90 nM.

Compound `CC(NCCc1cccs1)c1ccccc1N1CCN(C(=O)[C@@H](Cc2ccc(Cl)cc2)NC(=O)[C@H]2Cc3ccccc3CN2)CC1` (stereo partly drawn) returned a Ki at Melanocortin receptor 4 [1] of 24 nM. The same compound gave an EC50 at Melanocortin receptor 4 [2] of 577 nM.

`O=C(N[C@H](Cc1ccc(Cl)cc1)C(=O)N1CCN(c2ccccc2CNC2CCCC2)CC1)[C@H]1Cc2ccccc2CN1` came in with a Ki at Melanocortin receptor 4 [1] of 66 nM. For the same compound, a half-maximal response on Melanocortin receptor 4 [2] (EC50) required 164 nM.

The compound `CC(NCCc1ccccc1F)c1ccccc1N1CCN(C(=O)[C@@H](Cc2ccc(Cl)cc2)NC(=O)[C@H]2Cc3ccccc3CN2)CC1` (stereo partly drawn) yielded a Ki on Melanocortin receptor 4 [1] of 33 nM. This compound also displayed an EC50 at Melanocortin receptor 4 [2] of 2060 nM.

At Melanocortin receptor 4 [1], `CC(NC1CCCC1)c1ccccc1N1CCN(C(=O)[C@@H](Cc2ccc(Cl)cc2)NC(=O)[C@H]2Cc3ccccc3CN2)CC1` (stereo partly drawn) registered a Ki of 11 nM. In addition, the EC50 at Melanocortin receptor 4 [2] amounted to 72 nM.

Turning to `CCN(CC)Cc1ccccc1N1CCN(C(=O)[C@@H](Cc2ccc(Cl)cc2)NC(=O)[C@H]2Cc3ccccc3CN2)CC1`, affinity at Melanocortin receptor 4 [1] was put at a Ki of 52 nM. The compound further yielded an EC50 on Melanocortin receptor 4 [2] of 240 nM.

`CCCC(=O)C1(C2CCCCC2)CCN(C(=O)[C@@H](Cc2ccc(Cl)cc2)NC(=O)[C@@H](Cc2ncc[nH]2)NC(=O)c2ccccc2)CC1` gave an EC50 at Melanocortin receptor 4 [2] of 2.9 nM.

`CN(CCO)Cc1ccccc1N1CCN(C(=O)[C@@H](Cc2ccc(Cl)cc2)NC(=O)[C@H]2Cc3ccccc3CN2)CC1` yielded a Ki on Melanocortin receptor 4 [1] of 55 nM. On Melanocortin receptor 4 [2], this compound had an EC50 of 40 nM.

On Melanocortin receptor 4 [1], `O=C(N[C@H](Cc1ccc(Cl)cc1)C(=O)N1CCN(c2ccccc2CNCCc2cccc(F)c2)CC1)[C@H]1Cc2ccccc2CN1` displayed a Ki of 14 nM. The same compound showed a concentration giving a half-maximal response (EC50) at Melanocortin receptor 4 [2] of 460 nM.

`O=C(N[C@H](Cc1ccc(Cl)cc1)C(=O)N1CCN(c2ccccc2CNCc2ccco2)CC1)[C@H]1Cc2ccccc2CN1` displayed a Ki on Melanocortin receptor 4 [1] of 53 nM. At Melanocortin receptor 4 [2], the EC50 is 274 nM.

Take `CC(N[C@H]1CCNC1)c1ccccc1N1CCN(C(=O)[C@@H](Cc2ccc(Cl)cc2)NC(=O)[C@H]2Cc3ccccc3CN2)CC1` (stereo partly drawn): the Ki came out at 2100 nM in test [3], 590 nM on Melanocortin receptor 5, 13 nM at Melanocortin receptor 4 [1] and 3600 nM on Melanocortin receptor 3. The compound also displayed an EC50 at Melanocortin receptor 4 [2] of 12 nM.

Turning to `O=C(N[C@H](Cc1ccc(Cl)cc1)C(=O)N1CCC(Cn2cncn2)(C2CCCCC2)CC1)[C@H]1Cc2ccccc2CN1`, the Ki on Melanocortin receptor 5 stood at 860 nM.

As to `O=C(N[C@H](Cc1ccc(Cl)cc1)C(=O)N1CCN(c2ccccc2CNCCCO)CC1)[C@H]1Cc2ccccc2CN1`, affinity at Melanocortin receptor 4 [1] was put at a Ki of 120 nM. On Melanocortin receptor 4 [2], the EC50 is 36 nM.

Consider `O=C(N[C@H](Cc1ccc(Cl)cc1)C(=O)N1CCN(c2ccccc2CNC2CC2)CC1)[C@H]1Cc2ccccc2CN1`, for which the affinity on Melanocortin receptor 4 [1] corresponds to a Ki of 90 nM. Moreover, at Melanocortin receptor 4 [2], the EC50 turned out to be 253 nM.

At Melanocortin receptor 4 [1], `CC(NCc1ccco1)c1ccccc1N1CCN(C(=O)[C@@H](Cc2ccc(Cl)cc2)NC(=O)[C@H]2Cc3ccccc3CN2)CC1` (stereo partly drawn) had a Ki of 12 nM. The compound further returned an EC50 at Melanocortin receptor 4 [2] of 138 nM.

For `CC(NC1CCC(N)CC1)c1ccccc1N1CCN(C(=O)[C@@H](Cc2ccc(Cl)cc2)NC(=O)[C@H]2Cc3ccccc3CN2)CC1` (stereo partly drawn), affinity at Melanocortin receptor 4 [1] was put at a Ki of 25 nM. For the same compound, a half-maximal effect on Melanocortin receptor 4 [2] (EC50) was put at 34 nM.

At Melanocortin receptor 4 [1], `C[C@H]1CN(Cc2ccccc2N2CCN(C(=O)[C@@H](Cc3ccc(Cl)cc3)NC(=O)[C@H]3Cc4ccccc4CN3)CC2)[C@@H](C)CN1` returned an inhibition constant Ki of 19 nM. This compound also showed an EC50 at Melanocortin receptor 4 [2] of 18 nM.

At Melanocortin receptor 4 [1], `CN(Cc1ccccc1)Cc1ccccc1N1CCN(C(=O)[C@@H](Cc2ccc(Cl)cc2)NC(=O)[C@H]2Cc3ccccc3CN2)CC1` came in with a Ki of 84 nM. On Melanocortin receptor 4 [2], this compound had an EC50 of 632 nM.

As to `O=C(N[C@H](Cc1ccc(Cl)cc1)C(=O)N1CCN(c2ccccc2CNCC2CCNCC2)CC1)[C@H]1Cc2ccccc2CN1`, on Melanocortin receptor 4 [1], the affinity corresponds to a Ki of 102 nM. This compound also gave an EC50 on Melanocortin receptor 4 [2] of 208 nM.

Source of the values: ChEMBL document CHEMBL1137176, “Structure-activity relationships of piperazinebenzylamines as potent and selective agonists of the human melanocortin-4 receptor” (Bioorg Med Chem Lett, 2004).
